# Source: patent US9080186B2, “Compositions comprising cationic amphiphiles and colipids for delivering therapeutic molecules” (Agave Pharma, Incorporated, priority 2009, dated 2015)
# Assay: siRNA remaining in water (supernatant OD260) after precipitation with cationic lipid
# Assay type: physicochemical
# Set-up: unit not given here
# Procedure: A nucleic acid/cationic lipid salt was prepared by the following method. Two mg of the cationic lipid was dissolved in 0.1 mL of chloroform in a clean, dry borosilicate clear glass vial and the chloroform was evaporated off by blowing nitrogen gas into the vial and any remaining trace amount of chloroform was removed by drying in vacuo in a vacuum chamber. The vial was removed from the vacuum chamber and 0.1 mL of ethanol was added. The vial was sealed with TEFLON®-lined cap and tightly wrapped with a sealing tape. The vial was vortexed or/and sonicated to dissolve the cationic lipid.
# The solution of the cationic lipid in ethanol was added to an aqueous solution containing 1 mg siRNA. The addition of the cationic lipid to the siRNA solution caused immediate aggregation forming a water-insoluble cationic lipid/nucleic acid salt comprised of the cationic lipid and siRNA.
# The water-insoluble cationic lipid/nucleic acid salt in a tube was then centrifuged in an Eppendorf microcentrifuge at maximum speed for 15 minutes to form a pellet. The supernatant after each centrifugation were collected and the amount siRNA in the supernatant was measured with OD260.
# Table 2 is the summary of measurement of the ratio of siRNA/lipid which rendering siRNA insoluble in water.
SMILES,siRNA remaining in water (siRNA/lipids ratio 0.5),siRNA remaining in water (siRNA/lipids ratio 0.75),siRNA remaining in water (siRNA/lipids ratio 1),siRNA remaining in water (siRNA/lipids ratio 1.5),siRNA remaining in water (siRNA/lipids ratio 2)
"CCCCCCCC/C=C\CCCCCCCCOCC(C[N+](C)(C)C)OCCCCCCCC/C=C\CCCCCCCC.[Cl-] (stereo not drawn) [DOTMA, N-[1-(2,3-dioleyloxy)propyl]-N,N,N-trimethylammonium chloride]",61,57,46,29,6
"CC(C)CCC[C@@H](C)[C@H]1CC[C@H]2[C@@H]3CC=C4C[C@@H](OC(=O)NCCN(C)C)CC[C@]4(C)[C@H]3CC[C@]12C.Cl [DC-Chol, cholesteryl 3β-N-(dimethylaminoethyl)carbamate hydrochloride]",72,63,57,35,13
"CCCCCCCC/C=C\CCCCCCCC(=O)OCC(C[N+](C)(C)C)OC(=O)CCCCCCC/C=C\CCCCCCCC.[Cl-] (stereo not drawn) [DOTAP, N-(l-(2,3-dioleoyloxy)propyl)-N,N,N-trimethylammonium chloride]",63,55,45,28,10
